Entries after “also recorded” stand apart in the source; their conditions may differ. Like-named read-outs stand apart in the source and are kept apart here. A value given as a limit tells only on which side of the number the result lay.

Assay [1] relates to L1210 cells. Description: cytotoxic activity on murine leukemia cells of the L1210 type (inhibition of cell growth). The class given is cell-based. The conditions noted are these: in vitro, only ID50 lower than 2 μM considered significant, read-out: ID50 (dose inhibiting 50% of cell growth). On the procedure:
The cytotoxic activity was determined on murine leukemia cells of the L1210 type according to a method already described (by C. Paoletti, S. Cros eta al., Chem. Bio. Interact, 25, 45 […]. The effect on cell growth is expressed in terms of the dose inhibiting 50% of cell growth (ID50). Only the values of ID50 lower than 2 μM can be considered as being significant from the biological point of view.

In assay [2] the test system is supercoiled form (form I) of the DNA of the bacteriophage OX 174. Description: nuclease activity: cleavage of supercoiled DNA observed by electrophoresis on agarose gel. The class given is biochemical. The conditions noted are these: for Form I / Form II / Form III: 2 min with oxidant. On the procedure: In fact, only 13% of form I remains at the end of 2 min in the presence of 250 nM of the metalloporphyrin and 5 μM of potassium hydrogen persulfate, KHSO5. The cleavages are single-strandcleavages since the form II (circular duplex DNA with one cleavage) accumulates before being converted to form III (linear duplex DNA). The experimental conditions and the details of the analytical method are given in the reference Fouquet et al. (cf. page 1).
1 μM of metalloporphyrin
pre-incubation time (DNA +
a) 20 min., b) 1 min. time of incubation

In assay [3] the test system is DNA. Particulars: in the presence of ferric ions, molecular oxygen and reducers; cited from earlier work.
The mark [4] stands for this setting: 250 nM metalloporphyrin; 5 μM KHSO5; pre-incubation a) 20 min.
[5] abbreviates: 250 nM metalloporphyrin; 5 μM KHSO5; pre-incubation b) 1 min.
The mark [6] stands for this setting: 1 μM metalloporphyrin; 5 μM KHSO5; pre-incubation a) 20 min.

Turning to `CC(=O)[O-].CC(=O)[O-].CC(=O)[O-].CC(=O)[O-].CC(=O)[O-].C[n+]1ccc(-c2c3nc(c(-c4cc[n+](C)cc4)c4ccc([n-]4)c(-c4cc[n+](C)cc4)c4nc(c(-c5ccc([N+](C)(C)C)cc5)c5ccc2[n-]5)C=C4)C=C3)cc1.[Mn+3]` [1 h) (Mn), Manganese (III) 5-(4-trimethylaminophenyl)-10, 15, 20-tris (N-methyl-4 pyridyl)-porphyrin pentaacetate], in assay [1], the IC50 stood at 540 nM. In addition, in assay [2] (setting [4]), the “Form I” value is reported as 13%, the “Form II” value is recorded as 78% and the “Form III” value is 9%. For the same compound, in assay [2] (setting [5]), the “Form I” value is 63% and the “Form II” value amounted to 37%. The “form I remaining at the end of 2 min” value in assay [2] (250 nM metalloporphyrin, 5 μM potassium hydrogen persulfate KHSO5) worked out at 13%. For the same compound, in assay [2] (setting [6]), the “Form II” value stood at 59% and the “Form III” value is 41%. Moreover, the “efficacy of cleavage / nuclease activity in words” value in assay [2] (DNA in vitro, listed as 1h) is on record as “very marked; also recorded: single-strandcleavages”.

For `COc1ccc2[nH]c3c(C)c4cc[n+](CCCCC(=O)O)cc4c(C)c3c2c1` [5 b), N^2-(4-carboxybutyl)-9-methoxy-ellipticinium chloride], the IC50 in assay [1] (Mus musculus) is above 23000 nM.

For “Manganese (III) 5-(4-hydroxyphenyl)-10, 15, 20-tris (N-methyl-4-pyridyl)-porphyrin tetraacetate [2 n) (Mn)]”, the IC50 in assay [1] came to 680 nM.

For the compound bleomycin, in assay [3], the “nuclease activity in words” value was “high nuclease activity”.

The values are drawn from patent publication US5236914A, “Derivatives of metalloporphyrins and application thereof for therapeutic purposes and in preparing hybrid molecules” (Centre National de la Recherche Scientifique (CNRS), priority 1988, dated 1993).
